US20250002475A1 (EPICS THERAPEUTICS, priority 2023, published 2025)
pIC50: −log10 of the molar value.

Assays:
[1] = target: T1, recombinant METTL3/METTL14 complex (Homo sapiens, UniProt Q86U44); test: METTL3/14 Scintillation Proximity Assay (SPA), RNA methyltransferase activity; type: biochemical; settings: 5.31 nM METTL3/14 complex, 250 nM RNA substrate, 1 μM 3H-SAM, 90 min; for compounds marked * best of the two separated forms
T1 construct: purchased Active Motif 311970; host or cells: Sf9 cells
T1 sequence (Q86U44 whole entry): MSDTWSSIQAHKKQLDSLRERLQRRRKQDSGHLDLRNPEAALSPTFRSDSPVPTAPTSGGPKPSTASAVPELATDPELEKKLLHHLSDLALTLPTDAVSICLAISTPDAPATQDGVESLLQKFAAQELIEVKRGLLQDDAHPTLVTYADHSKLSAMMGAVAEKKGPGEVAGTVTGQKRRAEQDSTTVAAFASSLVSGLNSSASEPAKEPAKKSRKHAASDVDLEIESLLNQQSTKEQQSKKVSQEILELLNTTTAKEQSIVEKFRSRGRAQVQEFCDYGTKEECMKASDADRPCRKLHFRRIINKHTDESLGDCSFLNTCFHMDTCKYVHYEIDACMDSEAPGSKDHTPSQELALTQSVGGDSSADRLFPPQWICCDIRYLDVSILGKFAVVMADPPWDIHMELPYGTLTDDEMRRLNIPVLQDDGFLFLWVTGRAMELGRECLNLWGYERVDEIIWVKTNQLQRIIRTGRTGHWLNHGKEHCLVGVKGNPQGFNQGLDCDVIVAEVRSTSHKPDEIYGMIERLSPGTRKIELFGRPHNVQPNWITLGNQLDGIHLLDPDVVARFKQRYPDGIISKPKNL
T1 sequence (Q9HCE5 whole entry partner): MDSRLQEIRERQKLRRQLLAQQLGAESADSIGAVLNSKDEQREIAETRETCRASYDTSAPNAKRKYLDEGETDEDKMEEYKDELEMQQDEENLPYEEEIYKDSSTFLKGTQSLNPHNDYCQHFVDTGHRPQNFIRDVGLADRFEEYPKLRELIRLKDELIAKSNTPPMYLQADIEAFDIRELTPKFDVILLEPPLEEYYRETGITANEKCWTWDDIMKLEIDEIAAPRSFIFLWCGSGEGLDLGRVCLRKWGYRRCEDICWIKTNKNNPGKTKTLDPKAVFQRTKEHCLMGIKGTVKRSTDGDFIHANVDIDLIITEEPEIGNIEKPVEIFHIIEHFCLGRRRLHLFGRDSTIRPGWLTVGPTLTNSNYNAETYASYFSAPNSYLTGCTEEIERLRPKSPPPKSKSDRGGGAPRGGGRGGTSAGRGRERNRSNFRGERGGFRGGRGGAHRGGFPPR

Kasumi-1 cells = test: Kasumi-1 cellular viability assay (ATP-Lite, 72 h); type: cell-based; settings: Homo sapiens, ATP-Lite luminescence, % viability relative to DMSO
Summary of the method: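 Kasumi-1 AML cells, 15000/well in RPMI-1640 with 10% FBS, were exposed to compound titrations (0.1% final DMSO) for 72 h at 37 °C, 5% CO2. ATP-Lite One Step luminescence gave % viability versus DMSO control, and IC50 came from the concentration-response.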

Caov-3 cells = test: Caov-3 cellular viability assay (ATP-Lite, 72 h); type: cell-based; settings: Homo sapiens, ATP-Lite luminescence, % viability relative to DMSO
Summary of the method: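 10000 cells/well treated 72 h at 37 °C, 5% CO2, in RPMI-1640 with 10% FBS and 0.1% DMSO final. Viability by ATP-Lite One Step luminescence. Expressed as % of DMSO control, with IC50 from each compound's concentration-response curve.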

SMILES	pIC50 [1]	pIC50 (Kasumi-1 cells)	pIC50 (Caov-3 cells)
c1nnc(-c2cn(C3(c4ccc(N5CCC[C@@H](NCC6CC6)C5)cn4)COC3)nn2)cc1C1CC1 [Compound 343, (R)-N-(cyclopropylmethyl)-1-(6-(3-(4-(5-cyclopropylpyridazin-3-yl)-1H-1,2,3-triazol-1-yl)oxetan-3-yl)pyridin-3-yl)piperdin-3-amine]	≥ 7.30	5.30 to 6.30	≥ 6.30
c1ncc(C2CC2)cc1-c1nnc(C2(c3ccc(N4CCC[C@@H](NCC5CC5)C4)cn3)COC2)o1 [Compound 344, (R)-N-(cyclopropylmethyl)-1-(6-(3-(5-(5-cyclopropylpyridin-3-yl)-1,3,4-oxadiazol-2-yl)oxetan-3-yl)pyridin-3-yl)piperidin-3-amine]	6.30 to 7.30	5.30 to 6.30	< 5.30
CC#Cc1cncc(-c2cn(C3(c4ccc(N5CCC[C@@H](NCC6CC6)C5)cn4)COC3)nn2)c1 [Compound 345, (R)-N-(cyclopropylmethyl)-1-(6-(3-(4-(5-(prop-1-vn-1-yl)pyridin-3-yl)-1H-1,2,3-triazol-1-yl)oxetan-3-yl)pyridin-3-yl)piperidin-3-amine]	≥ 7.30	≥ 6.30	≥ 6.30
c1ncc(-c2cn(C3(c4ccc(N5CCC[C@@H](NCC6CC6)C5)cn4)COC3)nn2)cc1CC1CC1 [Compound 346, (R)-N-(cyclopropylmethyl)-1-(6-(3-(4-(5-(cyclopropylmethyl)pyridin-3-yl)-1H-1,2,3-triazol-1-yl)oxetan-3-yl)pyridin-3-yl)piperdin-3-amine]	≥ 7.30	≥ 6.30	≥ 6.30
c1ncc(C2CC2)cc1-c1cn(C2(c3ccc(N4CCC[C@@H](NCC5CC5)C4)cn3)CNC2)nn1 [Compound 349, (R)-N-(cyclopropylmethyl)-1-(6-(3-(4-(5-cyclopropylpyridin-3-yl)-1H-1,2,3-triazol-1-yl)azetidin-3-yl)pyridin-3-yl)piperidin-3-amine]	≥ 7.30	< 5.30	5.30 to 6.30
CN1CC(c2ccc(N3CCC[C@@H](NCC4CC4)C3)cn2)(n2cc(-c3cncc(C4CC4)c3)nn2)C1 [Compound 350, (R)-N-(cyclopropylmethyl)-1-(6-(3-(4-(5-cyclopropylpyridin-3-yl)-1H-1,2,3-triazol-1-yl)-1-methylazetidin-3-yl)pyridin-3-yl)piperidin-3-amine]	≥ 7.30	5.30 to 6.30	5.30 to 6.30
c1ncc(C2CC2)cc1-c1nnc(C2(c3ccc(N4CCC[C@@H](NCC5CC5)C4)cn3)COC2)s1 [Compound 352, (R)-N-(cyclopropylmethyl)-1-(6-(3-(5-(5-cyclopropylpyridin-3-yl)-1,3,4-thiadiazol-2-yl)oxetan-3-yl)pyridin-3-yl)piperidin-3-amine]	≥ 7.30	≥ 6.30	≥ 6.30
CC(c1ccc(N2CCC[C@@H](NCC3CC3)C2)nn1)c1nnc(-c2cncc(C3CC3)c2)s1 (stereo partly drawn) [Compound 358, (3R)—N-(cyclopropylmethyl)-1-(6-(1-(5-(5-cyclopropylpyridin-3-yl)-1,3,4-thiadiazol-2-yl)ethyl)pyridazin-3-yl)piperidin-3-amine]	≥ 7.30	5.30 to 6.30	≥ 6.30
CC(c1ccc(N2CCC[C@@H](NCC3CC3)C2)cn1)c1nnc(-c2cncc(C3CC3)c2)s1 (stereo partly drawn) [Compound 359, (3R)—N-(cyclopropylmethyl)-1-(6-(1-(5-(5-cyclopropylpyridin-3-yl)-1,3,4-thiadiazol-2-yl)ethyl)pyridin-3-yl)piperidin-3-amine]	≥ 7.30	≥ 6.30	≥ 6.30
c1cc(Cc2nnc(-c3cncc(N4CCCC4)n3)s2)ncc1N1CCC[C@@H](NCC2CC2)C1 [Compound 361, (R)-N-(cyclopropylmethyl)-1-(6-((5-(6-(pyrrolidin-1-yl)pyrazin-2-yl)-1,3,4-thiadiazol-2-yl)methyl)pyridin-3-yl)piperidin-3-amine]	≥ 7.30	≥ 6.30	≥ 6.30
c1ncc(C2CC2)cc1-c1nnc(Cc2ccc(N3CCC[C@@H](NCC4CC4)C3)cn2)s1 [Compound 362, (R)-N-(cyclopropylmethyl)-1-(6-((5-(5-cyclopropylpyridin-3-yl)-1,3,4-thiadiazol-2-yl)methyl)pyridin-3-yl)piperidin-3-amine]	≥ 7.30	≥ 6.30	≥ 6.30
CC(C)(c1ccc(N2CCC[C@@H](NCC3CC3)C2)cn1)c1nnc(-c2cncc(C3CC3)c2)s1 [Compound 363, (R)-N-(cyclopropylmethyl)-1-(6-(2-(5-(5-cyclopropylpyridin-3-yl)-1,3,4-thiadiazol-2-yl)propan-2-yl)pyridin-3-yl)piperidin-3-amine]	≥ 7.30	5.30 to 6.30	5.30 to 6.30
CC(C)(c1ccc(N2CCC[C@@H](NCC3CC3)C2)cn1)c1nnc(-c2cncc(N3CCCC3)n2)s1 [Compound 364, (R)-N-(cyclopropylmethyl)-1-(6-(2-(5-(6-(pyrrolidin-1-yl)pyrazin-2-yl)-1,3,4-thiadiazol-2-yl)propan-2-yl)pyridin-3-yl)piperidin-3-amine]	≥ 7.30	≥ 6.30	≥ 6.30
CC1(CN[C@@H]2CCCN(c3ccc(C4(c5nnc(-c6cncc(N7CCCC7)n6)s5)COC4)nc3)C2)CC1 [Compound 367, (R)-N-((1-methylcyclopropyl)methyl)-1-(6-(3-(5-(6-(pyrrolidin-1-yl)pyrazin-2-yl)-1,3,4-thiadiazol-2-yl)oxetan-3-yl)pyridin-3-yl)piperdin-3-amine]	≥ 7.30	≥ 6.30	≥ 6.30
CC1(CN[C@@H]2CCCN(c3ccc(C4(c5nnc(-c6cncc(C7CC7)c6)s5)COC4)nc3)C2)CC1 [Compound 368, (R)-1-(6-(3-(5-(5-cyclopropylpyridin-3-yl)-1,3,4-thiadiazol-2-yl)oxetan-3-yl)pyridin-3-yl)-N-((1-methylcyclopropyl)methyl)piperidin-3-amine]	≥ 7.30	≥ 6.30	≥ 6.30
c1cc(C2(c3nnc(-c4cncc(N5CCCC5)n4)s3)COC2)ncc1N1CCC[C@@H](NCC2CC2)C1 [Compound 369, (R)-N-(cyclopropylmethyl)-1-(6-(3-(5-(6-(pyrrolidin-1-yl)pyrazin-2-yl)-1,3,4-thiadiazol-2-yl)oxetan-3-yl)pyridin-3-yl)piperidin-3-amine]	≥ 7.30	≥ 6.30	≥ 6.30

More lines, main results first:

pIC50 [1]	SMILES	pIC50 (Kasumi-1 cells)	pIC50 (Caov-3 cells)
≥ 7.30	CC1(CN[C@@H]2CCCN(c3ccc(C4(n5cc(-c6cncc(C7CC7)c6)nn5)COC4)nc3)C2)CC1 [Compound 333, (R)-1-(6-(3-(4-(5-cyclopropylpyridin-3-yl)-1H-1,2,3-triazol-1-yl)oxetan-3-yl)pyridin-3-yl)-N-((1-methylcyclopropyl)methyl)piperidin-3-amine]	≥ 6.30	≥ 6.30
≥ 7.30	c1ncc(C2CC2)cc1-c1cn(C2(c3ccc(N4CCC[C@@H](NC5CCC5)C4)cn3)COC2)nn1 [Compound 334, (R)-N-cyclobutyl-1-(6-(3-(4-(5-cyclopropylpyridin-3-yl)-1H-1,2,3-triazol-1-yl)oxetan-3-yl)pyridin-3-yl)piperidin-3-amine]	≥ 6.30	≥ 6.30
≥ 7.30	FC(F)(F)C1(CN[C@@H]2CCCN(c3ccc(C4(n5cc(-c6cncc(C7CC7)c6)nn5)COC4)nc3)C2)CC1 [Compound 335, (R)-1-(6-(3-(4-(5-cyclopropylpyridin-3-yl)-1H-1,2,3-triazol-1-yl)oxetan-3-yl)pyridin-3-yl)-N-((1-(trifluoromethyl)cyclopropyl)methyl)piperidin-3-amine]	5.30 to 6.30	≥ 6.30
≥ 7.30	O=C(Nc1cc(=O)n2ccccc2n1)C1(c2ccc(N3CCC[C@@H](NCC4(C(F)(F)F)CCC4)C3)cn2)COC1 [Compound 337, (R)-N-(4-oxo-4H-pyrido[1,2-a]pyrimidin-2-yl)-3-(5-(3-(((1-(trifluoromethyl)cyclobutyl)methyl)amino)piperidin-1-yl)pyridin-2-yl)oxetane-3-carboxamide]	5.30 to 6.30	≥ 6.30
≥ 7.30	O=C(Nc1cc(=O)n2ccccc2n1)C1(c2ccc(N3CCC[C@@H](NCC4CC(F)(F)C4)C3)cn2)COC1 [Compound 338, (R)-3-(5-(3-(((3,3-difluorocyclobutyl)methyl)amino)piperidin-1-yl)pyridin-2-yl)-N-(4-oxo-4H-pyrido[1,2-a]pyrimidin-2-yl)oxetane-3-carboxamide]	≥ 6.30	≥ 6.30
≥ 7.30	FC(F)(F)C1(CN[C@@H]2CCCN(c3ccc(C4(n5cc(-c6cncc(C7CC7)c6)nn5)COC4)nc3)C2)CCC1 [Compound 339, (R)-1-(6-(3-(4-(5-cyclopropylpyridin-3-yl)-1H-1,2,3-triazol-1-yl)oxetan-3-yl)pyridin-3-yl)-N-((1-(trifluoromethyl)cyclobutyl)methyl)piperidin-3-amine]	5.30 to 6.30	≥ 6.30
≥ 7.30	FC1(F)CC(CN[C@@H]2CCCN(c3ccc(C4(n5cc(-c6cncc(C7CC7)c6)nn5)COC4)nc3)C2)C1 [Compound 341, (R)-1-(6-(3-(4-(5-cyclopropylpyridin-3-yl)-1H-1,2,3-triazol-1-yl)oxetan-3-yl)pyridin-3-yl)-N-((3,3-difluorocyclobutyl)methyl)piperidin-3-amine]	≥ 6.30	≥ 6.30
